Test results from US6365574B2, “Ethanolate of azithromycin, process for manufacture, and pharmaceutical compositions thereof” (Teva Pharmaceutical Industries Ltd., priority 1998, dated 2002).
“Also recorded” adds a separate entry of the source. Read-outs that look alike come from different tables or passages of the source.

Assays:
[1] = cited from earlier work
[2] = Hygroscopicity profile: controlled humidity chambers for two weeks, then Karl Fisher analysis of water content; type: physicochemical; details: compared with azithromycin monohydrate over a range of relative humidity (FIG. 1); monohydrate data from EP 298,650
Source text: Hygroscopicity profiles were obtained by maintaining samples in controlled humidity chambers for a period of two weeks, followed by Karl Fisher analysis of water content.

Substance	hygroscopicity ([1]; according to EP 298,650)	also measured
9-deoxo-9a-aza-9a-methyl-9a-homoerythromycin A	–	hygroscopicity ([1]; according to CN 1,093,370): less hygroscopic than the dehydrate described in EP 298,650
9-deoxo-9a-aza-9a-methyl-9a-homoerythromycin A [dehydrate form of azithromycin]	less hygroscopic than the previously known monohydrate	–
9-deoxo-9a-aza-9a-methyl-9a-homoerythromycin A [ethanolate of azithromycin]	–	hygroscopicity [2]: less hygroscopic than azithromycin monohydrate; also recorded: less hygroscopic than the prior art monohydrate
9-deoxo-9a-aza-9a-methyl-9a-homoerythromycin A [monohydrate]	hygroscopic	–
